In publication PMC8284440, “Toward New Transmission-Blocking Combination Therapies: Pharmacokinetics of 10-Amino-Artemisinins and 11-Aza-Artemisinin and Comparison with Dihydroartemisinin and Artemether” (Antimicrobial Agents and Chemotherapy, 2021):
Like-named read-outs stand apart in the source and are kept apart here.

Columns and labels:
[1] = Pharmacokinetics in mice, oral administration; format: in vivo, male C57/BL6 mice; settings: for bioavailability / Cmax / Tmax: male, C57/BL6, mouse, plasma; for bioavailability: 50 mg/kg; for bioavailability / F: oral bioavailability, p.o. 50 mg/kg vs i.v. 10 mg/kg; for Cmax / Tmax / AUC: p.o. 50 mg/kg, parent; for AUC: 0 h to last
Procedure: (i) Animals. Healthy male C57/BL6 mice each weighing approximately 25 g were used. The mice maintained at the University of Cape Town animal facility were housed in 27 by 21 by 18 cm cages, under controlled environmental conditions at 22 ± 2°C and a 12-h light/dark cycle. Humidity was monitored and ranged between 55 and 70%. Food and water were available ad libitum. Mice were acclimatized to their environment for 7 days before experiments were initiated.
(ii) Oral drug administration. Each of artemether, the amino-artemisinins 5 to 10, and 11-aza-artemisinin 11 (12.5 mg) was dissolved in 0.2 ml DMSO, to which 1.8 ml 0.5% (wt/vol) HPMC in water was then added. Compounds were administered orally via gavage at a dose of 50 mg/kg (n = 3). Dosing volumes were calculated based on the weight of each mouse in the respective group. The dosing volumes ranged between 160 μl and 200 μl, ensuring that the dose remained at 50 mg/kg. Blood samples for amino-artemisinins 5 to 8 and 10 were collected via tail-bleeding predose and at 0.08, 0.25, 0.5, 1, 2, and 4 h. Blood samples for the phenylurea 9 and 11-aza-artemisinin 11 were collected at 0.08, 0.5, 1, 2, 4, 8, and 24 h postdose. Samples were placed in 0.5 ml lithium heparin micro vials to prevent blood coagulation. […] The samples were immediately centrifuged at 5,590 × g for 5 min and the plasma was transferred to new microvials. The plasma samples were stored at −80°C.
(§1) Sample extraction. […] The organic layer was then transferred and evaporated under a gentle stream of nitrogen at room temperature for 30 min. The dried samples were reconstituted in mobile phase, and a 5 μl sample was injected for LC-MS/MS analysis. The only exception was the arylurea 10, for which no liquid-liquid extraction was conducted; instead, the 200 μl acetonitrile solution was evaporated under a gentle stream of nitrogen at room temperature. The dried sample was reconstituted in the mobile phase, and a 5 μl sample was injected for LC-MS/MS analysis. The plasma samples for each compound from the in vivo studies were extracted by mixing 350 μl ethyl acetate with 15 μl of plasma sample and 35 μl of universal buffer containing internal standard at pH 8. The samples were vortexed for 1 min and centrifuged for 5 min, and the organic layer was then transferred and evaporated under a gentle stream of nitrogen at room temperature for 30 min. The dried samples were each reconstituted in the mobile phase, and a 5 μl sample was injected for LC-MS/MS analysis.
(§2) LC-MS/MS analysis. For all the artemisinins except the arylurea 10, gradient chromatography was performed on a Phenomenex (Torrance, CA, USA) Luna PFP(2) analytical column (100 Å, 5 μm, 2 by 50 mm) and an AB Sciex API 5500 mass spectrometer which was operated at unit resolution in the multiple reaction monitoring (MRM) mode. The HPLC method used was a gradient method with 5 mM ammonium acetate and 0.1% acetic acid in water as the aqueous phase and a mixture of acetonitrile and methanol (1:1 vol/vol) containing 5% of the aqueous phase as the organic phase ([89]). The arylurea 10 was analyzed using a Phenomenex Gemini NX-C18 (5 μm, 2.1 mm by 50 mm) column with an AB Sciex 3200 QTRAP mass spectrometer operated at unit resolution in the MRM mode. The HPLC method used was a gradient method with 5 mM ammonium acetate and 0.1% acetic acid in water as the aqueous phase and a mixture of acetonitrile and methanol (1:1 vol/vol). The transitions of the molecular ions were monitored, as listed in Table S8 in the supporting information. The calibration range was between 0.002 μg/ml and 6.250 μg/ml.

[2] = system: late stage (>90% stage IV and V) P. falciparum NF54 gametocytes; settings: cited from earlier work
[3] = Metabolic stability in mouse liver microsomes; format: in vitro ADME; parameters: half-life / CLint scaled: dose or concentration left out as unconfirmed; settings: for CLint scaled: calculated, read-out: Intrinsic liver clearance rate CLint Mouse; for half-life: read-out: Microsomal half-life t1/2 Mouse
Procedure: (ii) Metabolic stability in liver microsomes. The metabolic stability assay was performed in duplicate using 96-deepwell plates. Each compound (0.4 mM) was incubated individually in mouse, rat, and pooled human liver microsomes (0.4 mg/ml) at 37°C in the presence and absence of the cofactor NADPH (1 mM). An aliquot was taken at 0, 5, 10, 30, and 60 min, and the reaction was quenched by adding 300 μl of ice-cold acetonitrile containing the internal standard carbamazepine (0.0236 μg/ml) ([88]). The test compounds in the supernatant were analyzed by means of LC-MS/MS as described in “Sample analysis” below. The normalized data for each sample were used to calculate the in vitro half-life, intrinsic clearance rate, and hepatic extraction ratio from the results of this assay using the following equations ([88]).Equation 1. Normalized area. (1) Normalized area=(Peak area of sample at time point/Peak area of internal standard) Equation 2. Percent parent remaining. (2) % Parent=Normalized peak area of sample at time point/Normalized peak area of sample at t=0×100 Equation 3. Calculated t1/2. (3) t1/2=−0.693/λ where λ is the slope of the ln (% parent remaining) versus time curve of the compound.Equation 4. CLint. (4) CLint=[0.693/t1/2(min)]×[Volume of incubation (μl)/Microsomal protein (μg)] Equation 5. Hepatic extraction ratio. (5) EH=fu×CLint/QH + fu×CLint
as §1
as §2, with “μg/ml. Data acquisition and evaluation were performed using Analyst 1.6.2 software (Applied Biosystems, Foster City, CA, USA). The formation of the putative metabolite DHA from the amino-artemisinins and the metabolite M1 of artemisone were evaluated in these mice PK studies; the MRM transitions of DHA and M1 (Table S8) were thus included in the LC-MS/MS assays.” for “μg/ml.”

[4] = Table S4, n = 1, ref 4 (supplement; main text 62), read-out: Late stage IC50 (Luciferase 72 h)
[5] = Table S3, ± SEM, ref 1 and 2 (supplement; main text 47, 48), read-out: Late Stage (LG, Luc 72 h) IC50
[6] = metabolite formed from p.o. artemiside 5, 50 mg/kg

| AUC of metabolite ([1]; metabolite formed from p.o. artemisone 6, 50 mg/kg) [min/µmol/L] | SMILES | bioavailability ([1]; oral) [%] | bioavailability ([1]; po) [%] | Cmax ([1]; po) [nM] | Tmax ([1]; po) [min] | F [1] [%] | AUC [1] | IC50 [2, 4] [nM] | Hepatic extraction ratio EH Mouse [3] | CLint scaled [3] [mL/min/kg] | half-life [3] [min] | IC50 [2, 5] [nM] | AUC of metabolite [1, 6] [min/µmol/L] | AUC of metabolite ([1]; metabolite formed from p.o. artemether 3, 50 mg/kg) [min/µmol/L] |
| --- | --- | --- | --- | --- | --- | --- | --- | --- | --- | --- | --- | --- | --- | --- |
| – | C[C@@H]1CC[C@H]2[C@@H](C)C(=O)N[C@@H]3O[C@@]4(C)CC[C@@H]1[C@]32OO4 [11-Aza-artemisinin 11, 11-aza-artemisinin] | 7 | 14 | 2600 ± 10 | 30 | 7.15 ± 0.3 | 154.9 ± 10 min/µmol/L | 166 | 0.3 | 36.4 | > 150 | – | – | – |
| – | CO[C@H]1O[C@@H]2O[C@@]3(C)CC[C@H]4[C@H](C)CC[C@@H]([C@H]1C)[C@@]24OO3 [Artemether 3, artemether] | – | 2 ± 0.6 | 600 ± 200 | 6 | – | 32.3 ± 20 min/µmol/L | 224 | 0.8 | 393 | 17.4 | – | – | – |
| – | C[C@H]1[C@H](N2CCSCC2)O[C@@H]2O[C@@]3(C)CC[C@H]4[C@H](C)CC[C@@H]1[C@@]24OO3 [Artemiside 5, artemiside] | – | 1 ± 0.2 | 100 ± 10 | 60 ± 54 | – | 9.5 ± 2.5 min/µmol/L | – | 0.9 | 551 | 12.4 | 1.5 ± 0.5 | – | – |
| – | C[C@H]1[C@H](N2CCS(=O)(=O)CC2)O[C@@H]2O[C@@]3(C)CC[C@H]4[C@H](C)CC[C@@H]1[C@@]24OO3 [Artemisone 6, artemisone] | – | 32 | 8000 ± 800 | 18 ± 6 | 34 ± 7.5 | 922.7 ± 348 min/µmol/L | – | 0.9 | 805 | < 10 | 42.4 ± 3.3 | 101.5 ± 49 | – |
| – | C[C@H]1[C@H](N2CCN(C(=O)Nc3ccc(F)cc3)CC2)O[C@@H]2O[C@@]3(C)CC[C@H]4[C@H](C)CC[C@@H]1[C@@]24OO3 [Arylurea 10] | – | 17.5 ± 3.1 | 2300 ± 300 | 30 | – | 276.5 ± 48.4 min/µmol/L | – | 0.6 | 2480 | < 10 | 17 ± 7 | – | – |
| – | C[C@H]1[C@@H](O)O[C@@H]2O[C@@]3(C)CC[C@H]4[C@H](C)CC[C@@H]1[C@@]24OO3 [DHA 2, dihydroartemisinin] | – | – | – | – | – | – | – | 0.4 | 50.2 | 136 | 33.7 ± 1.98 | – | 77 ± 12 |
| 173.3 ± 51.7 | C[C@H]1[C@H](N2C=CS(=O)(=O)CC2)O[C@@H]2O[C@@]3(C)CC[C@H]4[C@H](C)CC[C@@H]1[C@@]24OO3 [M1 12] | – | – | – | – | – | – | – | 0.3 | 37.4 | > 150 | – | 20.8 ± 8 | – |
| – | C[C@H]1[C@H](NS(N)(=O)=O)O[C@@H]2O[C@@]3(C)CC[C@H]4[C@H](C)CC[C@@H]1[C@@]24OO3 [Sulfamide 7] | – | 59 | 21700 ± 1200 | 36 ± 12 | 59.3 ± 11.6 | 2,562.3 ± 499 min/μmol/liter | – | 0.3 | 41.3 | > 150 | 419 | – | – |
